3 compounds from PMC9500072, “Topical application of an irreversible small molecule inhibitor of lysyl oxidases ameliorates skin scarring and fibrosis” (Nature Communications, 2022) can be followed below.

pIC50: −log10 of the molar value. Like-named read-outs stand apart in the source and are kept apart here.

What all share (format): biochemical
The target in assay [1] is T1, Dog Recombinant LOXL2 (Canis lupus familiaris, UniProt A0A8I3P9Y5).
T1 construct: made in house; host or cells: HEK-293 clones (provided by Dr. Fernando Rodríguez Pascual)
T1 sequence (A0A8I3P9Y5 1-777): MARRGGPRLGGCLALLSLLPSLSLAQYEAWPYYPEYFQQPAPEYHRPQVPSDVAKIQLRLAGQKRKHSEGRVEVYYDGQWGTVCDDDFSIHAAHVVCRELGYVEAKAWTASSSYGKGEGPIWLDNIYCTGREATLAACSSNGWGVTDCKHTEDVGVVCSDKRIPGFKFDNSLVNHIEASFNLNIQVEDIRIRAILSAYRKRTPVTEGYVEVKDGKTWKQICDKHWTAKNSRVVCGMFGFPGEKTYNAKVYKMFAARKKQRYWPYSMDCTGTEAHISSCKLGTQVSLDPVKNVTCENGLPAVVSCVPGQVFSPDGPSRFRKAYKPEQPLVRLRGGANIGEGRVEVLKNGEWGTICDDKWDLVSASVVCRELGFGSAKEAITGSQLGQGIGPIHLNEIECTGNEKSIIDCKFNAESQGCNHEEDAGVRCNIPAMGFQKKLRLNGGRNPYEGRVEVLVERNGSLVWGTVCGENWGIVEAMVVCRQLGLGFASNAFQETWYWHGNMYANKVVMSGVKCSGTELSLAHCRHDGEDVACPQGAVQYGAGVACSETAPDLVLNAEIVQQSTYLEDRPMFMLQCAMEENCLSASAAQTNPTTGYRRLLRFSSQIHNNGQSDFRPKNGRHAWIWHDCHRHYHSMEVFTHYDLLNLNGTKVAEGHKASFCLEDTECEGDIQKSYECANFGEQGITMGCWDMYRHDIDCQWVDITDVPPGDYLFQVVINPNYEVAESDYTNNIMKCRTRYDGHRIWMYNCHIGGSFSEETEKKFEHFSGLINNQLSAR
Briefly: Amine oxidase inhibition profile, dog LOXL2.

The target in assay [2] is T2, Rat Recombinant LOXL2 (Rattus norvegicus, UniProt B5DF27).
T2 construct: made in house; host or cells: HEK-293 clones (provided by Dr. Fernando Rodríguez Pascual)
T2 sequence (B5DF27 26-776): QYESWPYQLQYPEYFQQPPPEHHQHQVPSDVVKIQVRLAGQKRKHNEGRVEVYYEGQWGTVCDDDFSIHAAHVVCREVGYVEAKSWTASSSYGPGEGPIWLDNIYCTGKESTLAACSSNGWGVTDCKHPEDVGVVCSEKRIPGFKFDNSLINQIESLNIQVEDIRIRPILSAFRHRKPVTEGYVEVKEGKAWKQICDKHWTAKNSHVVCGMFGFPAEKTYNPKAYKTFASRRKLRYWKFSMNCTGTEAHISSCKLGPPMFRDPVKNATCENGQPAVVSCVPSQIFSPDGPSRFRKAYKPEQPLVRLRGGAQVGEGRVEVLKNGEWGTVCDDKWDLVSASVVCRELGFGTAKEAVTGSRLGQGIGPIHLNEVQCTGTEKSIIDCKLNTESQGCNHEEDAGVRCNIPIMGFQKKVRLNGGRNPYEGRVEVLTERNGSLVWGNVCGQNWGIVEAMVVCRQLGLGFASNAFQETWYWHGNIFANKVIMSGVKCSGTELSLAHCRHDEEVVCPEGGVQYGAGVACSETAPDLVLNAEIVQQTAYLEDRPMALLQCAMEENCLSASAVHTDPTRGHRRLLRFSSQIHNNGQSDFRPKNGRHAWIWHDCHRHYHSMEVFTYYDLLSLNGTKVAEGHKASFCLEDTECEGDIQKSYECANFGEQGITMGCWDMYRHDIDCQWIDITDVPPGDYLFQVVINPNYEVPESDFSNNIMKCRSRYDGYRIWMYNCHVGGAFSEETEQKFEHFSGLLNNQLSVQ
Briefly: Amine oxidase inhibition profile, rat LOXL2.

The target of assay [3] is T3, DAO (Homo sapiens, UniProt P19801).
T3 sequence (P19801 20-751): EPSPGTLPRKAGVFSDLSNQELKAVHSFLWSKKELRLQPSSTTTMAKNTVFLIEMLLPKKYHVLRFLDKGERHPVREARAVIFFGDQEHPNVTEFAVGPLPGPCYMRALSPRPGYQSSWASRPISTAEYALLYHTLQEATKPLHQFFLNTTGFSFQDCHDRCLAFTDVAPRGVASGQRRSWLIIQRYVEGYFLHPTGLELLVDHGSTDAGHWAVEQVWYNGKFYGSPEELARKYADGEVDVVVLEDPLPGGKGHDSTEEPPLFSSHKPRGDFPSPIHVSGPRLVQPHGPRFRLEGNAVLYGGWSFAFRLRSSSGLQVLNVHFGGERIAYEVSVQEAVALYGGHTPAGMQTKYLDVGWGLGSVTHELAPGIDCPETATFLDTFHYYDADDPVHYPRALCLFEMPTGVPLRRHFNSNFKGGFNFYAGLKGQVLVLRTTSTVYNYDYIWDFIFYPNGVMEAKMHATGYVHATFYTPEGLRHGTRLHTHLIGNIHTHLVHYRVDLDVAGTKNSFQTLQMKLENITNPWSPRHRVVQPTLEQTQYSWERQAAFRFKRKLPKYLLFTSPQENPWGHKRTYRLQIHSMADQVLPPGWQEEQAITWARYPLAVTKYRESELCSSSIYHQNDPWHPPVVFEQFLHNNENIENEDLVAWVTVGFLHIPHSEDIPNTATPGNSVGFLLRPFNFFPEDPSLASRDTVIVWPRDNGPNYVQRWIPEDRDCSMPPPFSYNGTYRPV
Put plainly: Amine oxidase inhibition profile, DAO. The text has this: (§1) Supplem entary Materi als:
(§2) Supplementary Table S1: Amine oxidase inhibition profile of PXS -4787, PXS-6302 and
(§3) Supplementary Table S2: Perm eability profile of PXS -6302.

The target of assay [4] is T4, Human Recombinant MAO-B (Homo sapiens, UniProt P27338).
T4 sequence (P27338 1-520): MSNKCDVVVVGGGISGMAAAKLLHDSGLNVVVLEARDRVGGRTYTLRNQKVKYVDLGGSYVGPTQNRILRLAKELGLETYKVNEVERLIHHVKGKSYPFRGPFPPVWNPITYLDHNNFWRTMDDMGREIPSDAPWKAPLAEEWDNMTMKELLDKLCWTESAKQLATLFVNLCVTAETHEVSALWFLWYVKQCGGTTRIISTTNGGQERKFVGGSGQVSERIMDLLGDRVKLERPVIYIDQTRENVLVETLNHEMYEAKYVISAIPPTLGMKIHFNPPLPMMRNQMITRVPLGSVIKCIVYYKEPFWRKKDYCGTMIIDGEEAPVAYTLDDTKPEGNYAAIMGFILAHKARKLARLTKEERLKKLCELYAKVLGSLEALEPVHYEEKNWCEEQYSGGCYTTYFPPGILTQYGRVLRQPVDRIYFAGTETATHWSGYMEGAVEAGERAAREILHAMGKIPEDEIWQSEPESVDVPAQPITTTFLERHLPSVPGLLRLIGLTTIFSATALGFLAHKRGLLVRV
Briefly: Amine oxidase inhibition profile, MAO-B.
Text: as §1, §2, §3

[5] abbreviates: read-out: Recombinant MAO-B IC50.

In general, pIC50 refers to −log10 of the IC50, conventionally taken in molar units. Consider `N#CCCN` [BAPN, β-aminoproprionitrile, reference compound], for which the “Dog Recombinant LOXL2 pIC50±SD” value in assay [1] turned out to be 6.3 ± 0.1. Also, the pIC50 was 6.32 in assay [1], 6.19 in assay [2], < 4.52 in assay [3] (read-out: Recombinant DAO IC50) and < 4.00 in assay [4] (setting [5]). Besides, the “Rat Recombinant LOXL2 pIC50±SD” value in assay [2] worked out at 6.2 ± 0.2. For the same compound, the “Recombinant DAO pIC50” value in assay [3] was < 4.5. Moreover, the “Recombinant MAO-B pIC50” value in assay [4] is < 4.

As to `NC/C=C(\F)CS(=O)(=O)c1ccccc1` [PXS-4787], the pIC50 was 6.21 in assay [1], 6.23 in assay [2], < 4.00 in assay [3] (read-out: Recombinant DAO IC50) and < 4.00 in assay [4] (setting [5]).

Regarding `NC/C=C(\F)C(F)(F)S(=O)(=O)c1ccccc1` [PXS-6302], the pIC50 in assay [1] was 6.47; in assay [2] it was 6.37; in assay [3] it was < 4.52; in assay [4] it was < 4.52.
